Data from patent publication US11674959B2, “Methods for identifying and preparing pharmaceutical agents for activating Tie1 and/or Tie2 receptors” (The Johns Hopkins University, priority 2017, dated 2023).

What was measured:
[1] = tested on: myosin light chain 2 (MLC2); experiment: Western blot of MEC lysates for pMLC2; format: cell-based, human; conditions: AXT107 and 200 ng/ml Ang2
Method: Phosphorylation of Tie2 is known to stimulate the Rap1-GTPase pathway, leading to a reduction in the phosphorylation of the downstream motor protein myosin light chain 2 (MLC2) associated with actin rearrangement.
For Ang1/2 signaling investigations, cell culture dishes (10 cm diameter) were coated with 5 μg/ml fibronectin (FN1; Sigma-Aldrich, St. Louis, Mo.) for two hours at 37° C. The FN1 solution was then removed by aspiration and 5×10^6 microvascular endothelial cells (MECs; Lonza, Walkersville, Md.) were plated in EGM-2MV media (Lonza) and cultured for forty-eight hours at 37° C. The cells were then serum starved for sixteen hours in serum-free EGM-2 base media (Lonza). AXT107 (0-100 μM, as indicated) was subsequently added to each culture and incubated for seventy-five minutes at 37° C. […] Specific proteins were identified by Western blot, using the following primary antibodies: Cell Signaling—phospho-Tie2 (Y992) (Cat #: 4221), Tie2 (Cat #: 7403), phospho-Stat3 (Y705) (Cat #: 4113), Stat3 (Cat #: 4904), phospho-Akt (S473) (Cat #: 4058), Akt (Cat #: 9272), phospho-p44/42 MAPK (T202/Y204) (Cat #: 4370), p44/42 MAPK (Cat #: 4695); BD Transduction Laboratories—β1 integrin (Cat #: 610467); Millipore—α5 integrin (Cat #: AB1928) and detected with HRP-conjugated goat anti-rabbit and sheep anti-mouse secondary antibodies (GE healthcare).

[2] = tested on: MEC monolayers; experiment: Immunofluorescence of MEC monolayers for VE-cadherin and F-actin; format: cell-based, human; conditions: 200 ng/ml Ang2, increasing concentrations of AXT107
Method: The jaggedness of these junctions is related to the structure of actin within the cell.
Glass-bottomed, 96-well plates with half well size were coated with 10 μg/ml FN1 for two hours at 37° C. The FN1 solution was then removed by aspiration and the plate seeded with 4×10^3 MECs in EGM-2MV media. After twenty-four hours, the cells were washed once with dPBS containing Ca^2+ and Mg^2+ to remove dead cells and the cells were allowed to grow for an additional twenty-four hours. For three-hour duration treatments (i.e., VE-cadherin), cells were washed twice with dPBS containing Ca^2+ and Mg^2+ and serum starved in EBM-2 for ninety minutes. The media was then removed and the cells were treated for three hours with 100 μl of EBM-2 media containing 200 ng/ml Ang2 or PBS and varying concentrations of AXT107 or DMSO. For fifteen minute-treated samples (i.e., phospho-Tie2), the cells were serum starved in EBM-2 media for 165 minutes, incubated for ninety minutes with varying concentrations of AXT107 or DMSO in EBM-2, and finally stimulated for fifteen minutes with 200 ng/ml Ang2 or PBS supplemented with peptide to retain the same concentrations. These times were chosen so that both treatment procedures would be completed at the same time. The cells were then washed twice with cold dPBS containing Ca^2+ and Mg^2+ and fixed in 10% neutral buffered formalin for fifteen minutes. […]

With LRRFSTAPFAFIDINDVINF [AXT107] the “Phosphorylation of MLC2” value [1] was “reduced in a dose-dependent manner”, the Actin fiber arrangement [2] was “became more cortical with increasing concentrations of AXT107” and the “Distribution of VE-cadherin at junctions” value [2] was “became progressively smoother with increasing concentrations of AXT107”.
